Counter-ions that a name gives are not always drawn.
How the values were obtained:
[1] = tested on: Chinese hamster ovary cells (CHO-DHFR−); assay: Absorption test using cells (cell growth promotion / retardation); assay type: cell-based; details: 2-day culture; for Optimum cell growth concentration: Cell Counting Kit 8, absorbance 450 nm, concentration at which cell count is largest (about 5%) compared to without PQQ, tested 150 to 2.3 μg/mL; for Cell growth retarding concentration: concentration at which total cell count is decreased by about 10% compared to without PQQ
Procedure: PQQ has effects of promoting cell growth and of retarding cell growth at a higher concentration on cultured animal cells. Based on these effects, change in the cell absorption was tested.
Chinese hamster ovary cells (CHO-DHFR^−, Dainippon Sumitomo Pharma Co., Ltd.) were cultured in a medium (alpha-MEM+10% fetal bovine serum) containing 5% CO2 at 37° C. The cultured cells were added together with 100 μL of the medium to each well of the 96-well plate (IWAKI) so that the cell density per well is 6,000 cells/well, and culture was performed overnight. The culture solution was removed, and the medium having a predetermined test concentration was added thereto. After a 2-day culture, the medium was replaced, a Cell Counting Kit 8 (from DOJINDO LABORATORIES) was used to stain the cells for one hour, and measurement of absorbance was performed at 450 nm. The absorbance in this case is proportional to the cell number.
As the test samples, the crystalline calcium salts of PQQ in Examples 1 and 2 above, and the disodium salt of PQQ or the raw material in Test Example 1, were used for testing after dilution by the medium. The test was duplicated for each sample, and the results were averaged.
The concentration at which the cell count due to PQQ is largest (about 5%) compared to the case without PQQ is recorded as the optimum cell growth concentration. In addition, the concentration at which the total cell count is decreased by about 10% compared to the case without PQQ is recorded as the cell-growth retarding concentration.

[2] = Elution test: amount of PQQ dissolved from the calcium salt with or without a chelating substance; assay type: physicochemical; details: for Dissolved amount: added to water (1 mL), four hours at room temperature, centrifugation, absorption at 450 nm
Procedure: Changes in the solubility of the insoluble salt due to the addition of a chelating substance were measured.

[3] = Water solubility of the recovered solid (description); assay type: physicochemical; details: dried solid
[4] = Release of PQQ from the white calcium salt in solvents; assay type: physicochemical; details: for Appearance: 40° C., five hours
Procedure: After keeping each resultant mixture at 40° C. for five hours, centrifugation was performed to remove solids, and PQQ was analyzed on high performance liquid chromatography.

| Dissolved amount [2] | solubility of the calcium salt alone ([2]; water, no chelating substance) | water solubility [3] | Appearance ([4]; Acetic acid 30 mM + Ammonium acetate 70 mM (pH 5)) | Appearance ([4]; Dimethyl sulfoxide) | Appearance ([4]; Na2HPO4 23.5 g/L NaH2PO4 5 g/L) | Appearance ([4]; PBS (GIBCO, pH 7.4)) | Appearance ([4]; Simulated gastric fluid (pH 1.7)) | release of calcium ions ([4]; neutral solution of phosphoric acid) | release of calcium ions ([4]; simulated gastric fluid) | Compound | Optimum cell growth concentration [1] | Cell growth retarding concentration [1] |
| --- | --- | --- | --- | --- | --- | --- | --- | --- | --- | --- | --- | --- |
| 1% | very low | poorly water-soluble | – | – | – | – | – | – | – | O=C(O)c1cc(C(=O)O)c2c(n1)C(=O)C(=O)c1cc(C(=O)O)[nH]c1-2 [Example 1, crystalline calcium salt of PQQ] | 2.3 µg/mL | 75 µg/mL |
| 3% | – | – | – | – | – | – | – | – | – | crystalline calcium salt of PQQ [Example 2] | 4.7 µg/mL | 75 µg/mL |
| – | – | – | – | – | – | – | – | – | – | O=C([O-])c1cc(C(=O)[O-])c2c(n1)C(=O)C(=O)c1cc(C(=O)O)[nH]c1-2.[Na+].[Na+] [Comparative Example 1, disodium salt of PQQ, reference compound] | 75 µg/mL | 150 µg/mL |
| – | – | – | White solid | Red solution | Red solution | Red solid | Red solid | easily released | difficult to be released | white calcium salt of PQQ [Example 15] | – | – |
